Series [1] concerns hyperoxia-exposed BPD mouse model. The series is described as follows: BPD mouse model: BPD-PH, RV hypertrophy ratios. Format: in vivo. The source says: AVR-48 protects the lungs from progressing towards BPD-PH. BPD-PH is characterized by abnormal vascular remodeling and rarefication of the pulmonary vasculature leading to vascular growth arrest which eventually leads to increased pulmonary vascular resistance and right heart failure (Hansmann, Sallmon et al. 2021). A similar effect is also seen in mouse models of experimental BPD, as reported by the present inventors, previously (Sun, Choo-Wing et al. 2013, Sureshbabu, Syed et al. 2016, Syed, Das et al. 2017, Leary, Das et al. 2019). There is hypertrophy of the right ventricle (RV) with an increase in the thickness of interventricular septum (IVS). […] There was no change in the ratio in the RA group treated with the drug, which was similar to RA control group (FIG. 8A).
Morphometry and quantification. To study chord length, septal thickness and radial alveolar count in the lungs, RV, LV and IVS thickness, 5 μm-thick left-lobe lung and heart paraffin-embedded sections were stained with H&E. Multiple randomly chosen areas (at least 10 areas) from each section were photographed using 100× total magnification. Sections with large airways or blood vessels from the lung were excluded for lung morphometry while quantitative measurements of PH-induced RV hypertrophy ratios (RV/LV and RV/LV+IVS) were done using the methodology described previously (Sun, Choo-Wing et al. 2013). The lung morphometry parameters were measured as described (Bhandari, Choo-Wing et al. 2008, Leary, Das et al. 2019, Das, Acharya et al. 2020, Das, Curstedt et al. 2020) either using ImageJ (a free software of NIH) or CellSens software (version 7, Olympus).

Series [2] in a line: PK in preterm lambs after IV dosing. The format is in vivo, lamb. The procedure:
A total 9 lambs were used for this study. One dose of Curosurf was given intratracheally to the PT lamb just after birth. Randomized doses of compound AVR-48 (8) (0, 0.1, 0.3, 1.0 and 3.0 mg/kg) were administered intravenously every 12 hr after the initial dose that will be given at 6 hr after delivery to n=2-4 lambs via slow intravenous injection. The beginning treatment at 6 hr post-delivery is selected to represent the human case where neonatologists attempt to allow an infant to breath without mechanical ventilation, if possible, and then begin invasive respiratory support as necessary. Whole blood was drawn from PT lambs at the time of delivery (“pre-dose”), immediately after dosing (IAD), at 15, 30, 45, and 60 min, and at 2, 4, 8, 12, 24, 48, 72, and 96 hr after the initial dose. Plasma extractions and bioanalysis of compound AVR-48 (8) were performed using a qualified bioanalysis method already developed by us. The PK parameters were calculated following both non-Compartmental Pharmacokinetic Modeling and population Pharmacokinetic Modeling as described by Roberts et al previously (Roberts, Stockmann et al. 2016). Blood was collected every 15 min for the first 90 min of postnatal life, followed by every 3 hours for 12 hours and then spaced at 1.5 d, 2.5 d, 3.5 d, 6.5 d, and 9.5 d for analysis of cytokines (Visconti, Senthamaraikannan et al. 2018) and VEGF levels (Albertine, Dahl et al. 2010). The blood samples also were analyzed for hematology and liver enzymes. After 6-7 d of mechanical ventilation, the lambs will be weaned from mechanical ventillation and weaned to non-invasive support for 3 d to ascertain longer-term outcome (Dahl, Bowen et al. 2018). Terminally, the PT lambs were euthanized after 10 days and their heart/lungs and brain were removed. Ex vivo BAL of the right cranial lobe (it has its own bronchus, pulmonary artery and vein) was done for similar analyses. Tracheal aspirates were collected according to the protocol for cytokines, BAL protein, ICAM-1 and VEGF. The spleen was collected to analyze immune cell population, using FACS.

For series [3], the system named is human cord blood monocytes (CBMC). The series is described as follows: Cytokines in human cord blood monocytes (CBMC). The format is cell-based. The text has this: IL-12p40, is a marker for the innate immune response to infection and is down regulated in CBMC.
Series [4] is described as follows: Oral PK of nanomilled formulations in adult SD rats. Format: in vivo, rat. Conditions: oral formulation, 100 mg/kg. The procedure: The test item, the stabilizer (HPC-SSL) and the surfactant (SDS) were accurately weighed and transferred in a 15-mL amber glass jar charged with 6 mL of yttrium-stabilized zirconia beads (0.8 mm). The suspension was brought to final weight with water in order to achieve the desired final concentration. The formulation was mixed using a vortex for at least 1 minute and then homogenized using a roller mill (Unitized Jar Mill, Model 755 RMV from U.S. Stoneware (purchased from Fisher Scientific Canada cat #08-381-1) at 50 rpm for 48 hours.
For the animal study, the suspensions prepared at 50 mg/mL were diluted to 10 mg/mL using a blank vehicle prepared using the same proportions of excipients as those indicated in Table I. By diluting the concentrated suspension of AVR-84 a clear solution was obtained whereas for AVR-48 the solution was a homogeneous cloudy solution.
Animals and dosing: The male SD rats (N=3) were obtained from Charles River. Each animal was weighed before the administration of the test item. […] At the specified time points, t=15′, 30′, 1 h, 2 h, 3 h, 4 h, 6 h, 8 h and 24 h (N=3), blood (100 μL) was collected via the saphenous vein using MINIVETTE® POCT K3-EDTA. The blood samples were centrifuged for 10 min at 965 g and 4° C. within 30 min of collection, to obtain plasma. Plasma samples were kept frozen at −80° C. The plasma samples were thawed on ice and kept on ice during the sample preparation. Thirty μL of plasma samples were mixed with 75 μL of precipitation solution (80% acetonitrile and 20% methanol containing IS) was added. Samples were mixed and centrifuged at 3500 rpm for 10 min at 4° C. Forty μL of the supernatant was transferred to a 96 well plate, and 80 μL of water+0.1% formic acid was added and analyzed using the in house developed HPLC method.

The mark [5] stands for this setting: sheep, plasma, single IV dose 3.0 mg/kg/dose saline solution, n=3 preterm lambs.

The source of these data is patent US12440471B2, “Compositions and methods for the treatment of bronchopulmonary dysplasia (BPD) and BPD-associated pulmonary hypertension” (AyuVis Research, Inc., priority 2021, dated 2025).

The Cmax is the highest concentration seen after dosing. The term half-life denotes the time in which the quantity being followed falls by half. The term Tmax denotes the time at which the peak concentration occurs.

As for `CC(=O)N[C@@H]1C(Oc2ccc([N+](=O)[O-])cc2)OC(CO)C(O)C1O` (stereo partly shown) [AVR-48], in series [1] (BPD group after treatment), the “Fulton's Index (RV/LV+IVS)” value was “decreased significantly” and the “RV/left ventricle (LV) ratio” value is reported as “decreased significantly”. Moreover, in series [1] (RA group treated with the drug vs RA control), the “RV/LV ratio and Fulton's Index in room air animals” value is “no change”. Further, the drug accumulation result in series [2] (repeat IV dosing for 7 days) is reported as “no drug accumulation”. In series [2] (setting [5]), this compound gave a Cmax of 12.2 ± 5.6 µM and a half-life of 33.6 min. The plasma concentration profile entry in series [2] (single IV dose 3.0 mg/kg/dose) is on record as “linear decline in drug concentration”. The compound also registered an IL-10 increase in series [3] (AVR-48 alone, 0.1-10 μM) of roughly 2.5 fold. In series [3] (LPS+AVR-48, 10 μM), the IL-1β result is listed as “decreased” and the IL-10 entry is given as “decreased”. Besides, the IL-12p40 response entry in series [3] (compound alone (10 μM) or with LPS, compared with only LPS) is “higher IL-12p40 response than only LPS”. For the same compound, the TNF-α levels entry in series [3] (human CBMC, LPS) is recorded as “decreased”. Moreover, in series [4] (male, SD (Sprague-Dawley), rat, plasma, adult rats n=3 (repeat of figure legend), read-out: Cmax), the Cmax amounted to 3.64 ± 0.66 µM. The Tmax in series [4] (male, SD (Sprague-Dawley), rat, plasma, adult rats n=3, read-out: Tmax) worked out at 42 ± 18 min. The half-life in series [4] (male, SD (Sprague-Dawley), rat, plasma, adult rats n=3, read-out: half-life (T v2) (converted)) is 36 ± 24 min. In addition, the plasma concentration profile result in series [4] is given as “linear decline in drug concentration”.
